For three compounds, Ki results are on record in BindingDB's records for PubMed 7651361 (Georgetown University, 1995).

In the assay the target is Nicotinic acetylcholine receptor (Rattus leucopus, UniProt Q62594).

“And” between values parts separate entries of the source, which are not always exact repeats. Equal entries are not always repeated.

Sequence of Nicotinic acetylcholine receptor (Q62594 whole entry): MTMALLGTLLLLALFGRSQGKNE

Take `CN1[C@@H]2CC[C@H]1CC(OC(=O)[C@H](CO)c1ccccc1)C2` (stereo partly drawn) [CAS_51-55-8]: the Ki was above 10 µM.

Regarding `COc1cc2c3cc1Oc1cc(ccc1O)CC1c4c(cc(OC)c(O)c4Oc4ccc(cc4)CC3[N+](C)(C)CC2)CC[N+]1(C)C` (stereo not drawn) [CAS_8063-06-7], the Ki is 4.5 µM and 2.03 µM.

`C[N+](C)(C)CCCCCC[N+](C)(C)C` [Hexamethoniumdibromide] came in with a Ki above 10 µM.
